Holding throughout (type): biochemical
Experiment [1] concerns resistant forms of EPSPS. The experiment in a line: EPSPS assays of plant extracts in the presence of glyphosate, resistant enzyme. The conditions noted are these: 0.1 mM N-(phosphonomethyl)glycine; 0.1 mM 14C-PEP; 0.75 mM shikimate-3-Pi; estimated. Here is the method:
(§1) Assays are carried out generally according to the radiochemical method of Padgette et al 1987 (Archives of Biochemistry and Biophysics, 258(2) 564–573) with K+ions as the major species of cationic counterion. Assays in a total volume of 50 μl, in 50 mM Hepes(KOH) pH 7.0 at 25° C., contain purified enzyme or plant extract (see below) diluted appropriately in Hepes pH 7.0 containing 10% glycerol, and 5 mM DTT, ^14C PEP either as variable-substrate (for kinetic determinations) or fixed at 100 or 250 μM and shikimate 3 Phosphate (K+ salt) at 0.75 or 2 mM as indicated. Optionally, for assays of crude plant extracts, assays also contain 5 mM KF and/or 0.1 mM ammonium molybdate. Assays are started with the addition of ^14C phosphoenolpyruvate (cyclohexylammonium+salt) and stopped after 2–10 minutes (2 minutes is preferable) with the addition of 50 μl of a solution of 1 part 1M acetic acid and 9 parts ethanol. […] Apparent Km and Vmax values are determined by least squares fit to a hyperbola with simple weighting using the Grafit 3.09b from Erithacus Software Ltd. Km values are generally ascertained using 8–9 concentrations of variable substrate ranging from Km/2–10 Km and triplicate points. […]

Experiment [2] concerns sensitive w/t form of EPSPS. The experiment is described as follows: EPSPS assays of plant extracts in the presence of glyphosate, sensitive w/t enzyme. The conditions noted are these: 0.1 mM N-(phosphonomethyl)glycine; 0.1 mM 14C-PEP; 0.75 mM shikimate-3-Pi. Here is the method:
as §1

Experiment [3] addresses T1, mutant Brassica napus EPSPS (Brassica napus, UniProt P17688, P178S/T174I).
T1 construct: The mature mutant Brassica napus EPSPS protein is purified; initiating Met (N); made in house; host or cells: E. coli BL21 (DE3) RP, vector pET24a
The experiment in a line: Radiochemical EPSPS assay of purified mutant Brassica napus EPSPS. Here is the method: as §1, with “^14C PEP either as variable-substrate (for kinetic determinations) or fixed at 100 or 250 μM and shikimate 3 Phosphate” left out
The mature mutant Brassica napus EPSPS protein is purified at ˜4 C as follows. […] EPSPS-containing fractions detected on the basis of EPSPS enzyme activity are combined and loaded onto an xk16 column containing 20 ml of HP Q-Sepharose equilibrated with S200 buffer. […]

Where a name gives a salt, the structure may show the parent alone.

What is called IC50 is the midpoint of a concentration-inhibition curve. A word on the Ki: it is the dissociation constant of the complex between target and ligand, obtained from inhibition or displacement.

T1 sequence (P17688 73-516 T174I/P178S): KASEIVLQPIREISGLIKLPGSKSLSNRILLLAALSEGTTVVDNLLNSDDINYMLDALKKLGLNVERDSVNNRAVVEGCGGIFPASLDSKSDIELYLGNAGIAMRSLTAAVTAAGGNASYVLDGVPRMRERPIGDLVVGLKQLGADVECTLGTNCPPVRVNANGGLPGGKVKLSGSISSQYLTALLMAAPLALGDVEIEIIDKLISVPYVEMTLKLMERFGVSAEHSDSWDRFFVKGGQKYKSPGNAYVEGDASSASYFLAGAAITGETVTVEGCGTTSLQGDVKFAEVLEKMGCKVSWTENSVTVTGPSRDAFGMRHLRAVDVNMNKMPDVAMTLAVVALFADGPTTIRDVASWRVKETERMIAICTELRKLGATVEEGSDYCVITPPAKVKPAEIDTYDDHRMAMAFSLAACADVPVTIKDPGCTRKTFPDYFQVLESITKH

For `O=C(O)CNCP(=O)(O)O` [N-(phosphonomethyl)glycine], the “inhibition of resistant forms of EPSPS” value in experiment [1] is given as under 8.5%. Also, the “inhibition of sensitive w/t EPSPS” value in experiment [2] is over 98%.
On to `O=C(O)CNCP(=O)(O)O` [potassium salt of glyphosate], for which the IC50 in experiment [3] (at 40 μM PEP, 2 mM shikimate-3-Pi, purified enzyme, read-out: IC50 value for the potassium salt of glyphosate) is about 600 µM. For the same compound, in experiment [3] (purified mutant EPSPS, read-out: estimated Ki value for potassium glyphosate), the inhibition constant (Ki) is about 450 µM.

(Values after US7169970B2, “Herbicide resistant plants” (priority 2000, dated 2007).)
